Test results: ChEMBL document CHEMBL3352742, “Synthesis, molecular docking and biological evaluation of coumarin derivatives containing piperazine skeleton as potential antibacterial agents” (Bioorg Med Chem, 2014)
Values after ≈ are worked out from the molar mass of the structure shown.

Columns and labels:
[1] = tested on: Staphylococcus aureus; assay: Antibacterial against Staphylococcus aureus ATCC 25923 after 24 hrs by two-fold serial dilution method; format: functional; details: ATCC 25923, 24 h
[2] = tested on: Pseudomonas aeruginosa; assay: Antibacterial against Pseudomonas aeruginosa ATCC 27853 after 24 hrs by two-fold serial dilution method; format: functional; details: ATCC 27853, 24 h
[3] = tested on: Bacillus subtilis; assay: Antibacterial against Bacillus subtilis ATCC 530 after 24 hrs by two-fold serial dilution method; format: functional; details: ATCC 530, 24 h
[4] = tested on: Escherichia coli; assay: Antibacterial against Escherichia coli ATCC 25922 after 24 hrs by two-fold serial dilution method; format: functional; details: ATCC 25922, 24 h
[5] = Inhibition of Staphylococcus aureus FabI assessed as oxidation of NADH to NAD+ by spectrophotometrically
[6] = Toxicity in human erythrocyte assessed as hemolysis by measuring hemoglobin release after 3 hrs; format: cell-based
[7] = Cytotoxicity against human macrophages assessed as cell viability after 24 hrs by MTT assay; format: functional, cell-based; details: Macrophage

Compound	MIC [1] [µg/mL]	MIC [2] [µg/mL]	MIC [3] [µg/mL]	MIC [4] [µg/mL]	IC50 [5] [µM]	LC30 [6] [µg/mL]	IC50 [7] [µM]
O=c1cc(OCC(O)CN2CCN(Cc3ccccc3)CC2)c2ccccc2o1 (stereo not drawn)	23 (≈ 58.4 µM)	> 50	> 50	> 50	41.3	–	–
O=C(COc1cc(=O)oc2ccccc12)N1CCN(c2cccc(Cl)c2Cl)CC1	23.2 (≈ 53.6 µM)	> 50	4.51 (≈ 10.4 µM)	> 50	8.41	> 10	223
COc1cccc(N2CCN(CC(O)COc3cc(=O)oc4ccccc34)CC2)c1 (stereo not drawn)	1.83 (≈ 4.46 µM)	17.1 (≈ 41.6 µM)	0.612 (≈ 1.49 µM)	> 50	2.73	> 10	178
O=c1cc(OCC(O)CN2CCN(c3ccccc3)CC2)c2ccccc2o1 (stereo not drawn)	> 50	> 50	37.9 (≈ 99.7 µM)	> 50	47.8	–	–
O=c1cc(OCC(O)CN2CCN(c3ccccc3F)CC2)c2ccccc2o1 (stereo not drawn)	> 50	> 50	> 50	> 50	71.1	–	–
O=C(COc1cc(=O)oc2ccccc12)N1CCN(c2ccc(F)cc2)CC1	29.1 (≈ 76.1 µM)	> 50	34.8 (≈ 91 µM)	> 50	37.6	–	–
O=C(COc1cc(=O)oc2ccccc12)N1CCN(c2cccc(C(F)(F)F)c2)CC1	1.08 (≈ 2.5 µM)	> 50	0.916 (≈ 2.12 µM)	> 50	1.82	> 10	188
Cc1ccc(N2CCN(CC(O)COc3cc(=O)oc4ccccc34)CC2)c(C)c1 (stereo not drawn)	1.44 (≈ 3.53 µM)	> 50	2.86 (≈ 6.99 µM)	> 50	6.23	> 10	127
O=C(COc1cc(=O)oc2ccccc12)N1CCN(c2ccc(Cl)c(Cl)c2)CC1	> 50	48.1 (≈ 111 µM)	1.86 (≈ 4.29 µM)	> 50	19.8	–	–
COc1ccc(N2CCN(C(=O)COc3cc(=O)oc4ccccc34)CC2)cc1	0.327 (≈ 0.829 µM)	> 50	0.861 (≈ 2.18 µM)	> 50	0.83	> 10	192
O=c1cc(OCC(O)CN2CCN(c3ccc([N+](=O)[O-])cc3)CC2)c2ccccc2o1 (stereo not drawn)	2.4 (≈ 5.63 µM)	33 (≈ 77.6 µM)	3.65 (≈ 8.58 µM)	> 50	3.82	> 10	153
O=C(COc1cc(=O)oc2ccccc12)N1CCN(c2ccc([N+](=O)[O-])cc2)CC1	> 50	> 50	1.94 (≈ 4.73 µM)	> 50	11.4	–	–
O=c1cc(OCC(O)CN2CCN(c3cccc(Cl)c3Cl)CC2)c2ccccc2o1 (stereo not drawn)	26 (≈ 57.8 µM)	> 50	18.2 (≈ 40.4 µM)	> 50	12.5	–	–
O=C(COc1cc(=O)oc2ccccc12)N1CCN(c2cccc(Cl)c2)CC1	> 50	46 (≈ 115 µM)	2.94 (≈ 7.37 µM)	> 50	26.6	–	–
O=c1cc(OCC(O)CN2CCN(c3ccccc3Cl)CC2)c2ccccc2o1 (stereo not drawn)	11.6 (≈ 28.1 µM)	> 50	13.9 (≈ 33.6 µM)	> 50	17.7	–	–
Cc1ccc(N2CCN(C(=O)COc3cc(=O)oc4ccccc34)CC2)c(C)c1	46.4 (≈ 118 µM)	> 50	34.4 (≈ 87.7 µM)	> 50	42.5	–	–
O=c1cc(OCC(O)CN2CCN(c3cccc(Cl)c3)CC2)c2ccccc2o1 (stereo not drawn)	> 50	> 50	26 (≈ 62.6 µM)	40.6 (≈ 97.8 µM)	31.4	–	–
COc1ccccc1N1CCN(CC(O)COc2cc(=O)oc3ccccc23)CC1 (stereo not drawn)	2.52 (≈ 6.15 µM)	49.8 (≈ 121 µM)	3.88 (≈ 9.46 µM)	> 50	5.54	> 10	256
O=C(COc1cc(=O)oc2ccccc12)N1CCN(c2ccc(Cl)cc2)CC1	> 50	> 50	15.8 (≈ 39.5 µM)	> 50	35.5	–	–
COc1cccc(N2CCN(C(=O)COc3cc(=O)oc4ccccc34)CC2)c1	0.837 (≈ 2.12 µM)	> 50	6.96 (≈ 17.6 µM)	> 50	4.62	> 10	141
O=C(COc1cc(=O)oc2ccccc12)N1CCN(c2ccccc2)CC1	41.5 (≈ 114 µM)	> 50	> 50	33.6 (≈ 92.3 µM)	45.5	–	–
O=c1cc(OCC(O)CN2CCN(c3cccc(C(F)(F)F)c3)CC2)c2ccccc2o1 (stereo not drawn)	0.957 (≈ 2.13 µM)	> 50	1.08 (≈ 2.4 µM)	> 50	0.97	> 10	172
O=c1cc(OCC(O)CN2CCN(c3ccc(F)cc3)CC2)c2ccccc2o1 (stereo not drawn)	> 50	> 50	> 50	40.4 (≈ 101 µM)	62.9	–	–
O=C(COc1cc(=O)oc2ccccc12)N1CCN(c2ccccc2F)CC1	> 50	> 50	31.3 (≈ 81.9 µM)	> 50	43.2	–	–
COc1ccc(N2CCN(CC(O)COc3cc(=O)oc4ccccc34)CC2)cc1 (stereo not drawn)	0.355 (≈ 0.865 µM)	> 50	0.236 (≈ 0.575 µM)	> 50	0.57	> 10	198
COc1ccccc1N1CCN(C(=O)COc2cc(=O)oc3ccccc23)CC1	8.19 (≈ 20.8 µM)	> 50	11 (≈ 27.8 µM)	> 50	7.15	> 10	164
O=C(COc1cc(=O)oc2ccccc12)N1CCN(c2ccccc2Cl)CC1	28.5 (≈ 71.4 µM)	> 50	7.18 (≈ 18 µM)	> 50	21.9	–	–
O=c1cc(OCC(O)CN2CCN(c3ccc(Cl)c(Cl)c3)CC2)c2ccccc2o1 (stereo not drawn)	> 50	> 50	0.339 (≈ 0.754 µM)	> 50	22.3	–	–
CC1(C)S[C@@H]2[C@H](NC(=O)Cc3ccccc3)C(=O)N2[C@H]1C(=O)O [PENICILLIN G]	1.69 (≈ 5.04 µM)	22 (≈ 65.7 µM)	0.752 (≈ 2.25 µM)	22.4 (≈ 66.9 µM)	–	> 10	186
